US11571423B2, “Small molecule modulators of human sting” (Curadev Pharma Limited, priority 2017, dated 2023)
Like-named read-outs stand apart in the source and are kept apart here.

Columns and labels:
hSTING(H232) = hSTING(H232) (Homo sapiens, UniProt Q86WV6); assay: Luciferase reporter assay in HEK293T-hSTING-Luciferase cells, H232/REF polymorph; format: cell-based; settings: H232/REF polymorph of human STING, EC50 range class
Outline: (§1)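 HEK293T cells stably co-express the hSTING variant (hEF1-HTLV promoter) and an ISRE/ISG54 IRF-inducible luciferase reporter. Clones with minimal ligand-independent activation were used. Cells were stimulated with compounds for 20 hr, and secreted luciferase in the supernatant was read by luminescence to give EC50.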

hSTING(R232) = hSTING(R232) (Homo sapiens, UniProt Q86WV6, H232R); assay: Luciferase reporter assay in HEK293T-hSTING-Luciferase cells, R232 (wild type) human STING; format: cell-based; settings: 20 hr stimulation, read-out: R232 human activity (EC50 range)
Chain of hSTING(R232) (Q86WV6 whole entry H232R, the tested form may be a part): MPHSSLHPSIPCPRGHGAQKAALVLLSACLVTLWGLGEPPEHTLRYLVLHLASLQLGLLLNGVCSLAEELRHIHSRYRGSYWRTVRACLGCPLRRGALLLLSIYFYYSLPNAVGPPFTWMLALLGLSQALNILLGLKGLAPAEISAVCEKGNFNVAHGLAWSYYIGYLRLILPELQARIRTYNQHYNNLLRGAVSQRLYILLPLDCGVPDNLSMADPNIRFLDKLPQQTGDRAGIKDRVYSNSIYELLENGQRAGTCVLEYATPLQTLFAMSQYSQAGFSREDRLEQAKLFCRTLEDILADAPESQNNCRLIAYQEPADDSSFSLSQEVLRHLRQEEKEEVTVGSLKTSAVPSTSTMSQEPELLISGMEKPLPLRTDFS
Outline: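 After 20 hr compound stimulation of 5×10^5 cells, secreted luciferase in the supernatant was measured by luminescence; values are fold-induction over baseline and EC50. The line is a clonal HEK293T stably carrying a STING plasmid (pUNO-1) and a luciferase reporter under five tandem ISREs fused to an ISG54 promoter.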

[1] = biological target: cynomolgus monkey STING protein (Macaca fascicularis, UniProt A0A2R3XZA6); assay: Luciferase reporter assay, cynomolgus monkey STING overexpressed in HEK293T cells; format: cell-based; settings: cynomolgus monkey STING overexpressed in HEK293T cells; read-out: Cynomolgus monkey STING activity (EC50 range)
Chain of cynomolgus monkey STING protein (A0A2R3XZA6 entry or part of it): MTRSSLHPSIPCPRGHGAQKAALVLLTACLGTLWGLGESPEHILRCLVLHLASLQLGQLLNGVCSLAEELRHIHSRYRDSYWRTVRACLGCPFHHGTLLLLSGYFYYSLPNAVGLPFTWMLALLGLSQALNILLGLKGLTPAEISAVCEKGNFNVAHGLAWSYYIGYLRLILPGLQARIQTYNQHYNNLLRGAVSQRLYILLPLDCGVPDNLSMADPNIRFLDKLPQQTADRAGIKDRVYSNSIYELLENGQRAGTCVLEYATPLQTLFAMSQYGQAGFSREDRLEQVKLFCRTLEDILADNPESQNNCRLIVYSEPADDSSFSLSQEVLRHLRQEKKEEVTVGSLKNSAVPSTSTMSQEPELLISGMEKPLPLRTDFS
Outline: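 HEK293T cells overexpressing cynomolgus STING with a secreted luciferase reporter were stimulated with compound for 20 hr. Supernatant reporter activity was then measured by Quanti-Luc luminescence, and EC50 values were derived.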

hSTING(HAQ) = hSTING(HAQ) (Homo sapiens, UniProt Q86WV6, G230A/H232R/R293Q/R71H); assay: Luciferase reporter assay in HEK293T-hSTING-Luciferase cells, HAQ polymorph; format: cell-based; settings: HAQ polymorph of human STING, EC50 range class
Chain of hSTING(HAQ) (Q86WV6 whole entry R71H/G230A/H232R/R293Q): as the sequence (Q86WV6 whole entry H232R, the tested form may be a part) above, with R71H, G230A, R293Q counted along it
Outline: as §1

IRF pathway = assay: Reporter gene expression assay in THP1-Dual cells, IRF axis (secreted Lucia luciferase); format: cell-based, human; settings: 20 hr stimulation, EC50 range class, read-out: THP-IRF activity
Outline: (§2)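 Human THP-1 monocyte-derived cells with two inducible reporters: 5×10^5 cells seeded and stimulated with compounds for 20 hr. SEAP (QUANTI-Blue) and Lucia luciferase (QUANTI-Luc) measured in supernatant; EC50 values reported as ranges.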

NF-κB pathway = assay: Reporter gene expression assay in THP1-Dual cells, NFkB axis (secreted SEAP); format: cell-based, human; settings: 20 hr stimulation, EC50 range class, read-out: THP-NFκB activity
Outline: as §2

Chain of hSTING(H232) (Q86WV6 whole entry): as the sequence (Q86WV6 whole entry H232R, the tested form may be a part) above, with R232H counted along it

| EC50 (hSTING(H232)) | EC50 (hSTING(R232)) | EC50 [1] | EC50 (hSTING(HAQ)) | EC50 (IRF pathway; Homo sapiens) | EC50 (NF-κB pathway; Homo sapiens) | EC50 (IRF pathway) | EC50 (NF-κB pathway) | Structure (SMILES) |
| --- | --- | --- | --- | --- | --- | --- | --- | --- |
| < 1000 nM | < 1000 nM | < 1000 nM | < 1000 nM | < 1000 nM | < 1000 nM |  |  | C[C@H]1c2ccc(C(=O)NCc3c(F)cc(F)cc3F)cc2N(Cc2c(F)ccc(OCCCO)c2Cl)C(=O)N1C [Example 138, (S)-1-(2-Chloro-6-fluoro-3-(3-hydroxypropoxy)benzyl)-3,4-dimethyl-2-oxo-N-(2,4,6-trifluorobenzyl)-1,2,3,4-tetrahydroquinazoline-7-carboxamide] |
| < 1000 nM | < 1000 nM | < 1000 nM | < 1000 nM | < 1000 nM | < 1000 nM |  |  | C[C@H]1c2ccc(C(=O)NCc3c(F)cc(F)cc3F)cc2N(Cc2c(F)ccc(C(N)=O)c2F)C(=O)N1C [Example 141, (S)-1-(3-Carbamoyl-2,6-difluorobenzyl)-3,4-dimethyl-2-oxo-N-(2,4,6-trifluorobenzyl)-1,2,3,4-tetrahydroquinazoline-7-carboxamide] |
| < 1000 nM | < 1000 nM | < 1000 nM | < 1000 nM | < 1000 nM | < 1000 nM |  |  | C[C@H]1c2ccc(C(=O)NCc3c(F)cc(F)cc3F)cc2N(Cc2c(F)cc(OC[C@@H](O)CO)cc2F)C(=O)N1C [Example 147, (S)-1-(4-((S)-2,3-Dihydroxypropoxy)-2,6-difluorobenzyl)-3,4-dimethyl-2-oxo-N-(2,4,6-trifluorobenzyl)-1,2,3,4-tetrahydroquinazoline-7-carboxamide] |
| < 1000 nM | < 1000 nM | < 1000 nM | < 1000 nM |  |  | < 1000 nM | < 1000 nM | COc1cccc(F)c1CN1C(=O)N(C)C(C)c2ccc(C(=O)NCc3c(F)cc(F)cc3F)cc21 (stereo not drawn) [Example 154, 1-(2-fluoro-6-methoxybenzyl)-3,4-dimethyl-2-oxo-N-(2,4,6-trifluorobenzyl)-1,2,3,4-tetrahydroquinazoline-7-carboxamide] |
| < 1000 nM | < 1000 nM | < 1000 nM | < 1000 nM | < 1000 nM | < 1000 nM |  |  | Cc1cccc(F)c1CN1C(=O)N(C)C(C)c2ccc(C(=O)NCc3c(F)cc(F)cc3F)cc21 (stereo not drawn) [Example 162, 1-(2-fluoro-6-methylbenzyl)-3,4-dimethyl-2-oxo-N-(2,4,6-trifluorobenzyl)-1,2,3,4-tetrahydroquinazoline-7-carboxamide] |
| < 1000 nM | < 1000 nM | < 1000 nM | < 1000 nM | < 1000 nM | < 1000 nM |  |  | Cc1ccc(Cl)c(CN2C(=O)N(C)[C@@H](C)c3ccc(C(=O)NCc4c(F)cc(F)cc4F)cc32)c1F [Example 169, (S)-1-(6-chloro-2-fluoro-3-methylbenzyl)-3,4-dimethyl-2-oxo-N-(2,4,6-trifluorobenzyl)-1,2,3,4-tetrahydroquinazoline-7-carboxamide] |
| < 1000 nM | < 1000 nM | < 1000 nM | < 1000 nM | < 1000 nM | < 1000 nM |  |  | C[C@H]1c2ccc(C(=O)NCc3c(F)cc(F)cc3F)cc2N(Cc2c(Cl)ccc(F)c2F)C(=O)N1C [Example 177, (S)-1-(6-chloro-2,3-difluorobenzyl)-3,4-dimethyl-2-oxo-N-(2,4,6-trifluorobenzyl)-1,2,3,4-tetrahydroquinazoline-7-carboxamide] |
| < 1000 nM | < 1000 nM | < 1000 nM | < 1000 nM | < 1000 nM | < 1000 nM |  |  | C[C@H]1c2ccc(C(=O)NCc3c(F)cc(F)cc3F)cc2N(Cc2c(F)ccc(F)c2Cl)C(=O)N1C [Example 179, (S)-1-(2-chloro-3,6-difluorobenzyl)-3,4-dimethyl-2-oxo-N-(2,4,6-trifluorobenzyl)-1,2,3,4-tetrahydroquinazoline-7-carboxamide] |
